Test system: human sperm
Assay: Human sperm cultured in PCAGH or monomeric sugars: sperm motility vs control HTF (Table 3)
Type: cell-based
Conditions: for sperm motility compared to control HTF: human sperm; for sperm motility throughout a 24-hr culture period: compared to sperm cultured in arabinose and galactose or in control medium with no polysaccharides
Procedure: Sperm Motility. Sperm motility measurements may be performed by subjective visual determination using a phase contrast microscope to group sperm into total percent motile (swimming), and total percent progressively motile (swimming forward). AIso the speed of those sperm which are progressively motile is determined, i.e., fast, medium, slow.
Alternatively, CASA can be used to objectively determine the motility characteristics of individual sperm cells in a sample (Davis, Infertility & Reproductive Medicine Clinics 3:341, 1992). A 7 μl sperm sample is placed onto a slide or chamber designed for CASA, and the computer tracks individual sperm cells and determines their motility as to speed over distance. Data is then expressed as percent motile, and specific measurements are given for parameters, such as mean path velocity and track speed. The measurements of velocity and linearity correlate with future fertility in several species studied.
Samples containing sperm are incubated at 37° C. (human) or 39° C. (animal) in 5% CO2 and humidified air. At various timed intervals, sperm survival rate, motility characteristics, functional membrane health and membrane lipid peroxidation levels are determined as described in Example 2.

O=C[C@@H](O)[C@H](O)[C@H](O)CO [arabinose, reference compound]
sperm motility compared to control HTF (culture time 3 hr): = (Equivalent sperm motility compared to control HTF)
sperm motility compared to control HTF (culture time 15 hr): = (Equivalent sperm motility compared to control HTF)
sperm motility compared to control HTF (culture time 24 hr): = (Equivalent sperm motility compared to control HTF)

O=C[C@H](O)[C@@H](O)[C@@H](O)[C@H](O)CO [galactose, reference compound]
sperm motility compared to control HTF (culture time 3 hr): = (Equivalent sperm motility compared to control HTF)
sperm motility compared to control HTF (culture time 15 hr): = (Equivalent sperm motility compared to control HTF)
sperm motility compared to control HTF (culture time 24 hr): = (Equivalent sperm motility compared to control HTF)

O=C[C@H](O)[C@@H](O)[C@@H](O)[C@H](O)C(=O)O [galacturonic acid]
sperm motility throughout a 24-hr culture period: superior sperm motility
sperm motility compared to control HTF (culture time 3 hr): +
sperm motility compared to control HTF (culture time 15 hr): +
sperm motility compared to control HTF (culture time 24 hr): +

galactopyranosylarabinose
sperm motility throughout a 24-hr culture period: superior sperm motility
sperm motility compared to control HTF (culture time 3 hr): +
sperm motility compared to control HTF (culture time 15 hr): +
sperm motility compared to control HTF (culture time 24 hr): +

From US7838509B2, “Methods and compositions to improve germ cell and embryo survival and function” (Bio-Origyn LLC, priority 1995, dated 2010)
